Marks after values point to notes of the source that are not given here.

Series [1] concerns mouse arthritis model induced by a single immunization with collagen. Description: Mouse arthritis model induced by a single immunization with collagen. It is filed as in vivo. As for the experimental part:
With reference to the method by Kato, F. et al (Annals of the Rheumatic Diseases, Vol. 55, 535-539, 1996), a bovine type II collagen (K-41, manufactured by collagen Gijutsu Kenkyukai) solution (3 mg/ml) dissolved in 0.05N acetic acid and Freund's complete adjuvant (Freund, Adjuvant Complete; No. F5506, manufactured by Sigma Co.) were mixed in equal amounts and subjected to ultrasonic treatment (under cooling with ice, 20 seconds×3 times) to obtain a uniform emulsion.
0.1 ml (150 μg) of the antigen prepared as described above, was administered to the tail head skin of a female DBA/1JNCrj mouse of 5 weeks old (purchased from Charles River Japan, Inc.) (Day 0). After 2 weeks from sensitization (Day 14), Compound No. 164 (50 mg/kg) suspended in a 1% Tween 80/physiological sodium chloride aqueous solution was intraperitoneally administered (administered in a volume of 10 ml/kg) once a day continuously for 5 weeks. To the vehicle control group, the 1% Tween 80/physiological sodium chloride aqueous solution was administered in the same manner.
Sideration of arthritis was observed once a week from Day 1 in accordance with the following evaluation standards disclosed in a literature of Kato, F. et al (Annals of the Rheumatic Diseases, Vol. 55, 535-539, 1996) with respect to Knuckle joints of the respective four limbs.

Series [2] concerns Colon 26/AD cells (mouse colon cancer). Type of series: in vivo. As to the method: Colon 26 mouse colon cancer cells (obtained from Cancer Chemotherapy Center Foundation for Cancer Research) were transplanted subcutaneously to BALB/c mouse, 10 days later, the grown tumor was taken out. It was hashed in a Hanks equilibrium salt solution and passed through a metal mesh to obtain single cells, which were cultured in vitro (37° C., 5% CO2) (using 10% fetal bovine serum-containing Dulbecco's Modified Eagle Medium (D-5648, manufactured by Sigma Co.)). […] The same cell strain always produced and secreted MMP-2 in the supernatant of the in vitro culture, but when cultured by an addition of TNF-α (50 ng/ml) in the culture solution, it produced MMP-9 remarkably.
With reference to the method by Tsuruo et al (Japanese Journal of Cancer Research (Gann), Vol. 75, 193-198, 1984), the inhibition effects against experimental lung metastasis were evaluated. Namely, 3×10^4 Colon 26/AD cells (suspended in 0.2 ml of Minimum Essential Medium (manufactured by Nissui Seiyaku K. K.)) cultured in vitro were transplanted through the tail vein of a male BALB/c AnNCrj mouse (purchased from Charles River Japan, Inc.) of 6 weeks old (Day 0). In the case of Compound No. 37, it was suspended in a 1% Tween 80/physiological sodium chloride aqueous solution and intraperitoneally administered (administered in a volume of 10 ml/kg) immediately (within 5 minutes) before transplantation of the cells, 2 hours later and once per day on Day 1-4 and Day 7-11 (a total of 11 times). Further, in the case of Compound No. 157, it was dissolved in 100 mM Tris-HCl (pH 8.5)/150 mM NaCl and forcibly orally administered (administered in a volume of 10 ml/kg) by means of a metal sonde 30 minutes before transplantation of the cells, in the morning and evening of Day 1 and once per day on Day 2-4, Day 7-11 and Day 14 (a total of 12 times). To the vehicle control group, the respective solvents containing no test materials, were administered in the same manner. On Day 14 or Day 15, the lung of each mouse was taken out, and the weight was measured, and the metastatis inhibition rate was calculated in accordance with the following formula. [formula]
A is the weight of lung of the treated group
B is the average weight of lung of the normal group
C is the average weight of lung of the solvent control group.

Regarding `CCOCCOc1cc(C(F)(F)F)cc(NNC(=C[N+](=O)[O-])NS(C)(=O)=O)n1` [Compound No. 164, N-(1-(6-(2-ethoxyethoxy)-4-trifluoromethyl-2-pyridyl)hydrazino-2-nitroethenyl)methanesulfonamide], in series [1] (50 mg/kg intraperitoneal everyday from Day 14 for 5 weeks, female DBA/1J mouse, p<0.01, Wilcoxon ranking test), the “sideration of arthritis compared with the control group” value is reported as “significantly delayed”. In addition, in series [1] (50 mg/kg intraperitoneal everyday, during the test period), the “toxicity / body weight increase by observation of general findings” value is given as “no distinct toxicity or inhibition against the body weight increase”. For the same compound, the “Sideration ratio of arthritis (number of diseased animals/number of tested animals)” value was 0/8 in series [1] (Day 14 (initial of administration of drug), 50 mg/kg intraperitoneal, vehicle control 0/8); 0/8 in series [1] (Day 21, 50 mg/kg intraperitoneal once a day, vehicle control 2/8); 2/8 in series [1] (Day 28, 50 mg/kg intraperitoneal once a day, vehicle control 7/8); 6/8 in series [1] (Day 35, 50 mg/kg intraperitoneal once a day, vehicle control 8/8); 7/8 in series [1] (Day 42, 50 mg/kg intraperitoneal once a day, vehicle control 8/8); 7/8 in series [1] (Day 49, 50 mg/kg intraperitoneal once a day, vehicle control 8/8).

As for `CS(=O)(=O)NC(=C[N+](=O)[O-])NNc1cc(C(F)(F)F)cc(Cl)n1` [Compound No. 157, N-(1-(6-chloro-4-trifluoromethyl-2-pyridyl)hydrazino-2-nitroethenyl)methanesulfonamide], the “Metastatis inhibition ratio (%)” value in series [2] (10 mg/kg × 11 times (head), oral, Day 15) is reported as 59.5%*. In addition, the “Lung weight increase (g) against normal mouse” value in series [2] (10 mg/kg × 11 times (head), oral, Day 15, vehicle control 0.183 ± 0.11) is on record as 0.070 ± 0.08 g. Moreover, in series [2] (10 mg/kg × 11 times (head), oral, Day 15, vehicle control 0.364, normal mouse 0.181), the “Weight of lung (g) (Day 15)” value is recorded as 0.257 g. In addition, the “inhibition ratio of experimental metastasis of Colon 26/AD to lung” value in series [2] (10 mg/kg, oral administration, total of 12 times, male BALB/c mouse, from lung weight) stood at 59.5%.

The values are drawn from patent US6596863B2, “Medical composition containing nitroetheneamine Derivative or salt there of as active constituent” (Ishihara Sangyo Kaisha, Ltd., priority 1998, dated 2003).
